Measurements reported in ChEMBL document CHEMBL1201862, “PubChem BioAssay data set” (2004).
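Dose response: 5 concentrations. Exposure: 48 h. Format: 96-well plates. Endpoint: linear interpolation; highest concentration if not reached. GI50: concentration for 50% inhibition of growth.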 Activity calls are given as the source filed them. Rule as the data show it: active = GI50 up to about 1.1 µM and inactive = higher.

Key:
Experiment in all cases: NCI tumour cell line growth inhibition, 48 h
[1] = tested on: A549
[2] = tested on: ACHN
[3] = tested on: HL-60
[4] = tested on: Hs-578T
[5] = tested on: IGROV-1
[6] = tested on: KM12
[7] = tested on: M14
[8] = tested on: MCF7
[9] = tested on: Malme-3M
[10] = tested on: NCI-H23
[11] = tested on: NCI-H460
[12] = tested on: OVCAR-3
[13] = tested on: OVCAR-4
[14] = tested on: OVCAR-8
[15] = tested on: PC-3
[16] = tested on: RPMI-8226
[17] = tested on: SF-295
[18] = tested on: SNB-19
[19] = tested on: U-251

Measured: GI50

O=N/N=c1\o[n-][n+](CCc2ccccc2)c1Cc1/c(=N/N=O)o[n-][n+]1CCc1ccccc1
inactive: [1] > 100 µM | [2] 31.4 µM | [3] 30.8 µM | [4] 28.7 µM | [5] 25.1 µM | [6] 78.2 µM | [7] 89.5 µM | [8] 70 µM | [9] 24.2 µM | [10] 28.4 µM | [11] 33.7 µM | [12] 18.7 µM | [13] 16.8 µM | [14] 21.7 µM | [15] 33.8 µM | [16] 43.1 µM | [17] 25.6 µM | [18] 28.2 µM | [19] 22.1 µM

O=C(O)Cc1ccc(Oc2nc3ccccc3nc2-c2ccccc2)cc1
inactive: [1] 57.8 µM | [2] 51.4 µM | [3] 67.8 µM | [4] 41.7 µM | [5] 45.9 µM | [6] 60.5 µM | [7] 36.2 µM | [8] 56.5 µM | [9] 65.8 µM | [10] 63.8 µM | [11] 57.8 µM | [12] 32.6 µM | [13] > 100 µM | [14] > 100 µM | [15] 56 µM | [16] 66.8 µM | [17] 79.4 µM | [18] > 100 µM | [19] 56.2 µM

Cc1nc(N)c(N2CCN([N+](=O)[O-])CC2)c(O)n1
inactive: [1] > 100 µM | [2] > 100 µM | [3] > 100 µM | [4] > 100 µM | [6] > 100 µM | [7] > 100 µM | [8] > 100 µM | [9] > 100 µM | [10] > 100 µM | [11] > 100 µM | [12] > 100 µM | [13] > 100 µM | [14] > 100 µM | [15] > 100 µM | [16] > 100 µM | [17] > 100 µM | [18] > 100 µM | [19] > 100 µM

O=C1[C@@H](O)[C@@H]2CCCC[C@@]23CCCN13
inactive: [1] > 100 µM | [2] > 100 µM | [3] > 100 µM | [4] > 100 µM | [5] > 100 µM | [6] > 100 µM | [7] > 100 µM | [8] > 100 µM | [9] > 100 µM | [10] > 100 µM | [11] > 100 µM | [13] > 100 µM | [14] > 100 µM | [15] > 100 µM | [16] > 100 µM | [17] > 100 µM | [18] > 100 µM | [19] > 100 µM

NC(Cc1ccc(S(=O)(=O)O)cc1)C(=O)NC(Cc1ccc(S(=O)(=O)O)cc1)C(=O)NC(Cc1ccc(S(=O)(=O)O)cc1)C(=O)NC(Cc1ccc(S(=O)(=O)O)cc1)C(=O)O (configuration not stated)
inactive: [1] > 100 µM | [2] > 100 µM | [3] > 10 µM | [4] > 100 µM | [5] > 100 µM | [6] 3.92 µM | [7] > 100 µM | [8] 46.1 µM | [9] 68.5 µM | [10] > 100 µM | [11] > 100 µM | [12] > 100 µM | [13] > 100 µM | [14] > 100 µM | [15] > 100 µM | [16] > 100 µM | [17] > 100 µM | [19] > 100 µM

c1ccc2[nH]c(C3CCCCO3)nc2c1 (configuration not stated)
inactive: [1] > 100 µM | [2] > 100 µM | [3] > 100 µM | [4] > 100 µM | [5] > 100 µM | [6] 50.4 µM | [7] > 100 µM | [8] > 100 µM | [9] > 100 µM | [10] > 100 µM | [12] > 100 µM | [13] > 100 µM | [14] > 100 µM | [15] > 100 µM | [16] > 100 µM | [17] > 100 µM | [18] > 100 µM | [19] > 100 µM

CCCC(=O)NC(Nc1ccc(S(=O)(=O)Nc2cc(C)on2)cc1)(C(=O)OCC)C(F)(F)F (configuration not stated)
inactive: [1] > 100 µM | [2] > 100 µM | [3] > 100 µM | [4] > 100 µM | [5] > 100 µM | [6] > 100 µM | [7] > 100 µM | [8] > 100 µM | [9] > 100 µM | [10] > 100 µM | [12] > 100 µM | [13] > 100 µM | [14] > 100 µM | [15] > 100 µM | [16] > 100 µM | [17] > 100 µM | [18] > 100 µM | [19] > 100 µM

CC(=O)OC1CC2C(C)(C)C(=O)C=CC2(C)C2CCC3(C)C(c4ccoc4)OC(=O)C4OC43C12C (configuration not stated)
inactive: [1] 7.66 µM | [2] 8.73 µM | [3] 5.55 µM | [4] 3.88 µM | [5] 10.1 µM | [6] 3.92 µM | [7] 10.5 µM | [8] 4.69 µM | [10] 7.53 µM | [11] 3.48 µM | [12] 21.6 µM | [13] 32.4 µM | [14] 8.04 µM | [15] 6.61 µM | [16] 2.64 µM | [17] 14.6 µM | [18] 19.5 µM | [19] 6.14 µM

N#Cc1c(NC(=S)NCc2ccccc2)sc2c1CCN(N1CCc3c(sc(NC(=S)NCc4ccccc4)c3C#N)C1)C2
inactive: [1] > 100 µM | [2] > 100 µM | [3] > 100 µM | [4] > 100 µM | [5] > 100 µM | [6] > 100 µM | [7] > 100 µM | [8] > 100 µM | [9] > 100 µM | [10] > 100 µM | [11] > 100 µM | [12] > 100 µM | [13] > 100 µM | [14] > 100 µM | [15] > 100 µM | [17] > 100 µM | [18] > 100 µM | [19] > 100 µM

NC(=O)c1c2c(n3ccccc13)C(=O)c1ccccc1C2=O
inactive: [2] > 100 µM | [3] > 100 µM | [4] 96.6 µM | [5] 42.7 µM | [6] > 100 µM | [7] 18.1 µM | [8] > 100 µM | [10] 11.9 µM | [11] 19.4 µM | [13] > 100 µM | [14] > 100 µM | [15] > 100 µM | [16] > 100 µM | [17] 29 µM | [18] 74 µM | [19] 39.6 µM

NC(=O)N/N=C1\C[C@H]2CCCC[C@H]2C1
inactive: [1] > 100 µM | [2] > 100 µM | [3] > 100 µM | [4] > 100 µM | [5] > 100 µM | [6] > 100 µM | [7] > 100 µM | [8] > 100 µM | [11] > 100 µM | [12] > 100 µM | [13] > 100 µM | [14] 83.4 µM | [15] > 100 µM | [16] > 100 µM | [17] > 100 µM | [18] 84.7 µM | [19] > 100 µM
